For 16 compounds, Kd, IC50 and ΔTm results are on record in US20250188110A1, “SPECIFIC SMALL MOLECULE INHIBITORS THAT BLOCK KMT9 METHYLTRANSFERASE ACTIVITY AND FUNCTION” (ALBERT-LUDWIGS-UNIVERSITÄT FREIBURG, priority 2021, published 2025).

Read-outs that look alike come from different tables or passages of the source. Some results are limits rather than exact numbers.

Assay [1] concerns the target T1, KMT9 (Homo sapiens, UniProt Q9Y5N5).
T1 sequence (Q9Y5N5 1-214): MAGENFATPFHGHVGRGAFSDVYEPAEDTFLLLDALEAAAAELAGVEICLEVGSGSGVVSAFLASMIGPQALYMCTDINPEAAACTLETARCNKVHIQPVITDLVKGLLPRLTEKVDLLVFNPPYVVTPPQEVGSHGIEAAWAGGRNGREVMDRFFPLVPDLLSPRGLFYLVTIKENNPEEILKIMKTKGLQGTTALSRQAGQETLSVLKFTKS
T1 sequence (Q9UI30 1-120 isoform Q9UI30-2 partner): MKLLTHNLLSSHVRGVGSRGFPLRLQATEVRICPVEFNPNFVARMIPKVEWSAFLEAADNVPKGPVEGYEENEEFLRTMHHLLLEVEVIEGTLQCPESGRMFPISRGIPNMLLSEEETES
The assay is described as follows: Microscale thermophoresis (MST) KMT9 binding. The procedure, abridged:
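Kd from microscale thermophoresis: compound series against 20 nM His-KMT9 labelled via RED-Tris-NTA, buffer 25 mM HEPES (pH 7.5)/100 mM NaCl/1 mM DTT/0.05% Tween, 40% MST power, 100% LED. Reported as classes: A ≤10 nM, B >10–100 nM, C >100–1000 nM, D >1000 nM.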

Assay [2] concerns the target T1, KMT9. The assay is described as follows: KMT9 methyltransferase inhibition assay, MTaseGlo luminescence (from entry 155). To be noted: 100 nM KMT9, 5 μM ETF1, 1 μM SAM. The class given is biochemical. The procedure, abridged: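 KMT9 (100 nM final) pre-incubated with inhibitor for 15 min at room temperature, then reacted with 5 μM ETF1 and 1 μM SAM for 2 h at 30° C. at 2% DMSO final. MTaseGlo luminescence read after 60 min detection; IC50 reported in four potency bins.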

For assay [3], the target named is T1, KMT9. The assay is described as follows: KMT9 thermal shift assay (SyproOrange). The class given is binding. The procedure, abridged:
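ΔTm versus DMSO-only control is reported in bins (>20 K, 15–20 K, 10–15 K, ≤10 K), using Tm from Boltzmann sigmoidal fits of SyproOrange melt curves. KMT9 with compound in pH 8.5 BTP buffer containing MgCl2 and DTT was preincubated at 25° C, then ramped 1° C per 15 s up to 95° C.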

The mark [4] stands for this setting: His-tag labelled KMT9 20 nM, Kd class, read-out: MST.
Where [5] appears, read: IC50 class, MTaseGlo procedure (entries from 155 on), read-out: Inhibition.
The mark [6] stands for this setting: ΔTm class, 500 uM compound, 2 μM KMT9, read-out: Thermal shift.
Where [7] appears, read: His-tag labelled KMT9 20 nM, read-out: MST (Kd).
Setting [8] is: MTaseGlo procedure (entries from 155), read-out: Inhibition (IC50).
[9] abbreviates: 500 µM compound, 2 μM KMT9, read-out: Thermal shift (ΔTm).
[10] abbreviates: microscale thermophoresis, His-tag labelled KMT9 (20 nM), read-out: MST.
The mark [11] stands for this setting: from entry 155: MTaseGlo assay, read-out: Inhibition.
Where [12] appears, read: ΔTm, 500 µM compound, 2 μM KMT9, 5X SO, read-out: Thermal shift.

As to `CN(CCCNCCc1ccccc1)C[C@H]1C[C@@H](n2cc(-c3cc(Cc4ccccc4)cs3)c3cncnc32)[C@H](O)[C@@H]1O` [Compound 620, (1R,2S,3R,5R)-3-[5-(4-Benzylthiophen-2-yl)pyrrolo[2,3-d]pyrimidin-7-yl]-5-{[methyl({3-[(2-phenylethyl)amino]propyl})amino]methyl}cyclopentane-1,2-diol], the Kd on KMT9 [1] (setting [4]) fell in the range of 100 to 1000 nM. The IC50 at KMT9 [2] (setting [5]) fell in the range of 1000 to 10000 nM. The ΔTm at 500 µM on KMT9 [3] (setting [6]) is 10 to 15 °C.
With `CC(C)N1CCC([C@H]2C[C@@H](n3cc(-c4nc(Cc5ccccc5)cs4)c4c(N)nc(Cl)nc43)[C@H](O)[C@@H]2O)CC1` [Compound 506, (1R,2S,3R,5R)-3-[4-amino-5-(4-benzyl-1,3-thiazol-2-yl)-2-chloropyrrolo[2,3-d]pyrimidin-7-yl]-5-(1-isopropylpiperidin-4-yl)cyclopentane-1,2-diol], the Kd on KMT9 [1] (setting [4]) was not above 10 nM. Further, the IC50 on KMT9 [2] (setting [5]) is 100 to 1000 nM. In addition, the ΔTm at 500 µM on KMT9 [3] (setting [6]) was more than 20 °C.
As for `Nc1cc(-c2cnsc2)cc([C@H]2C[C@@H](n3ccc4c(N)nc(Cl)nc43)[C@H](O)[C@@H]2O)c1` [Compound 681, (1R,2S,3R,5R)-3-(4-Amino-2-chloro-7H-pyrrolo[2,3-d]pyrimidin-7-yl)-5-(3-amino-5-(isothiazol-4-yl)phenyl)cyclopentane-1,2-diol], the Kd at KMT9 [1] (setting [7]) fell in the range of 10 to 100 nM. The IC50 on KMT9 [2] (setting [8]) was in the range of 100 to 1000 nM. For the same compound, at KMT9 [3] (setting [9]), the ΔTm at 500 µM lay within 10 to 15 °C.
In the case of `Nc1nc(Cl)nc2c1c(Br)cn2[C@@H]1CC(CNCCCNCCc2ccc(F)cc2)[C@@H](O)[C@H]1O` (mixture of isomers) [Compound 547, (1R,2S,3R)-3-(4-amino-5-bromo-2-chloro-7H-pyrrolo[2,3-d]pyrimidin-7-yl)-5-(((3-((4-fluorophenethyl)amino)propyl)amino)methyl)cyclopentane-1,2-diol], at KMT9 [1] (setting [7]), the Kd was not above 10 nM. Moreover, the IC50 on KMT9 [2] (setting [8]) fell in the range of 100 to 1000 nM. The ΔTm at 500 µM on KMT9 [3] (setting [9]) was more than 20 °C.
`Nc1nc(Cl)nc2c1ccn2[C@@H]1C[C@H](c2cn[nH]c2)[C@@H](O)[C@H]1O` [Compound 582, (1R,2S,3R,5R)-3-{4-Amino-2-chloropyrrolo[2,3-d]pyrimidin-7-yl}-5-(1H-pyrazol-4-yl)cyclopentane-1,2-diol]: at KMT9 [1] (setting [7]), the Kd was 100 to 1000 nM. Besides, the IC50 on KMT9 [2] (setting [8]) is 1000 to 10000 nM. The ΔTm at 500 µM on KMT9 [3] (setting [9]) is not above 10 °C.
Consider `Nc1ncnc2c1ccn2[C@@H]1C[C@H]([C@H]2CCCN2)[C@@H](O)[C@H]1O` [Compound 398, (1R,2S,3R,5R)-3-(4-amino-7H-pyrrolo[2,3-d]pyrimidin-7-yl)-5-((R)-pyrrolidin-2-yl) cyclopentane-1,2-diol], for which the Kd at KMT9 [1] (setting [7]) was more than 1000 nM. For the same compound, the IC50 at KMT9 [2] (setting [8]) was more than 10000 nM. The ΔTm at 500 µM on KMT9 [3] (setting [9]) is not above 10 °C.
Consider `NCc1cccc([C@H]2C[C@@H](n3cc(Br)c4c(N)nc(Cl)nc43)[C@H](O)[C@@H]2O)c1` [Compound 393, (1R,2S,3R,5R)-3-(4-amino-5-bromo-2-chloro-7H-pyrrolo[2,3-d]pyrimidin-7-yl)-5-(3-(aminomethyl)phen-yl) cyclopentane-1,2-diol], for which, at KMT9 [1] (setting [7]), the Kd was not above 10 nM. Moreover, the IC50 at KMT9 [2] (setting [8]) was 100 to 1000 nM. For the same compound, the ΔTm at 500 µM at KMT9 [3] (setting [9]) was 15 to 20 °C.
Regarding `Nc1ncnc2c1ccn2[C@@H]1C[C@H](c2ccncc2)[C@@H](O)[C@H]1O` [Compound 389, (1R,2S,3R,5R)-3-(4-amino-7H-pyrrolo[2,3-d]pyrimidin-7-yl)-5-(pyridin-4-yl) cyclopentane-1,2-diol], on KMT9 [1] (setting [10]), the Kd is more than 1000 nM. In addition, on KMT9 [2] (setting [11]), the IC50 is more than 10000 nM. The ΔTm at 500 µM at KMT9 [3] (setting [12]) is not above 10 °C.
On to `O[C@@H]1[C@@H](CNCCCNCCc2ccccc2)C[C@@H](n2cc(-c3nc(Cc4ccccc4)cs3)c3cnc(Cl)nc32)[C@@H]1O` [Compound 634, (1R,2S,3R,5R)-3-(5-(4-Benzylthiazol-2-yl)-2-chloro-7H-pyrrolo[2,3-d]pyrimidin-7-yl)-5-(((3-(phenethylamino)propyl)amino)methyl)cyclopentane-1,2-diol], for which the Kd on KMT9 [1] (setting [10]) was 10 to 100 nM. In addition, the IC50 at KMT9 [2] (setting [11]) lay within 1000 to 10000 nM. For the same compound, at KMT9 [3] (setting [12]), the ΔTm at 500 µM lay within 15 to 20 °C.
Regarding `CNc1nc(Cl)nc2c1ccn2[C@@H]1C[C@H](c2ccccc2)[C@@H](O)[C@H]1O` [Compound 596, (1R,2S,3R,5R)-3-(2-Chloro-4-(methylamino)-7H-pyrrolo[2,3-d]pyrimidin-7-yl)-5-phenylcyclopentane-1,2-diol], the Kd on KMT9 [1] (setting [7]) lay in the range of 100 to 1000 nM. Moreover, the IC50 at KMT9 [2] (setting [8]) was 1000 to 10000 nM. The ΔTm at 500 µM at KMT9 [3] (setting [9]) was not above 10 °C.
For the compound `Cn1cc(Cl)c(-c2cn([C@@H]3C[C@H](c4cccc(CN5CCC5)c4)[C@@H](O)[C@H]3O)c3nc(Cl)nc(N)c23)n1` [Compound 675, (1R,2S,3R,5R)-3-(4-amino-2-chloro-5-(4-chloro-1-methyl-1H-pyrazol-3-yl)-7H-pyrrolo[2,3-d]pyrimidin-7-yl)-5-(3-(azetidin-1-ylmethyl)phenyl)cyclopentane-1,2-diol], the Kd at KMT9 [1] (setting [7]) was not above 10 nM. Besides, the IC50 on KMT9 [2] (setting [8]) was in the range of 100 to 1000 nM. Also, on KMT9 [3] (setting [9]), the ΔTm at 500 µM is 15 to 20 °C.
For `Nc1ncnc2c1ccn2[C@@H]1C[C@H](c2cc(Cl)cc(Cl)c2)[C@@H](O)[C@H]1O` [Compound 384, (1R,2S,3R,5R)-3-(4-amino-7H-pyrrolo[2,3-a]pyrimidin-7-yl)-5-(3,5-dichlorophenyl) cyclopentane-1,2-diol], the Kd on KMT9 [1] (setting [10]) is more than 1000 nM. Also, the IC50 at KMT9 [2] (setting [11]) was more than 10000 nM. Moreover, the ΔTm at 500 µM at KMT9 [3] (setting [12]) is not above 10 °C.
Consider `Nc1nc(Cl)nc2c1ccn2[C@@H]1C[C@H](c2ccc(=O)[nH]c2)[C@@H](O)[C@H]1O` [Compound 590, 5-[(1R,2R,3S,4R)-4-{4-Amino-2-chloropyrrolo[2,3-d]pyrimidin-7-yl}-2,3-dihydroxycyclopentyl]-1H-pyridin-2-one], for which the Kd at KMT9 [1] (setting [7]) lay in the range of 100 to 1000 nM. In addition, at KMT9 [2] (setting [8]), the IC50 lay in the range of 1000 to 10000 nM. Moreover, the ΔTm at 500 µM on KMT9 [3] (setting [9]) is not above 10 °C.
Regarding `CN(CCCNCCc1ccc(F)cc1)C[C@H]1C[C@@H](n2cc(-c3ccn(C)n3)c3c(N)nc(Cl)nc32)[C@H](O)[C@@H]1O` [Compound 645, (1R,2S,3R,5R)-3-[4-Amino-2-chloro-5-(1-methylpyrazol-3-yl)pyrrolo[2,3-d]pyrimidin-7-yl]-5-{[(3-{[2-(4-fluorophenyl)ethyl]amino}propyl)(methyl)amino]methyl}cyclopentane-1,2-diol], at KMT9 [1] (setting [7]), the Kd lay within 10 to 100 nM. Moreover, the IC50 at KMT9 [2] (setting [8]) was 100 to 1000 nM. Moreover, on KMT9 [3] (setting [9]), the ΔTm at 500 µM was more than 20 °C.
For the compound `O[C@@H]1[C@@H](CN(CCCNCCc2ccccc2)c2cn[nH]c2)C[C@@H](n2cc(-c3cccs3)c3cnc(Cl)nc32)[C@@H]1O` [Compound 641, (1R,2S,3R,5R)-3-(2-Chloro-5-(thiophen-2-yl)-7H-pyrrolo[2,3-d]pyrimidin-7-yl)-5-(((3-(phenethylamino)propyl)(1H-pyrazol-4-yl)amino)methyl)cyclopentane-1,2-diol], the Kd on KMT9 [1] (setting [4]) is not above 10 nM. In addition, the IC50 on KMT9 [2] (setting [5]) was in the range of 100 to 1000 nM. For the same compound, the ΔTm at 500 µM on KMT9 [3] (setting [6]) lay in the range of 15 to 20 °C.
In the same order, the values of `CS(=O)(=O)n1ccc(-c2cn([C@@H]3C[C@H](CNCCCNCCc4ccccc4)[C@@H](O)[C@H]3O)c3nc(Cl)ncc23)n1` [Compound 622, (1R,2S,3R,5R)-3-(2-Chloro-5-(1-(methylsulfonyl)-1H-pyrazol-3-yl)-7H-pyrrolo[2,3-d]pyrimidin-7-yl)-5-(((3-(phenethylamino)propyl)amino)methyl)cyclopentane-1,2-diol] are 100 to 1000 nM, 100 to 1000 nM and 15 to 20 °C.
